A word on the IC50: it is the midpoint of a concentration-inhibition curve. Low readings indicate higher potency, high ones lower potency. Usually Inhibition stands for the share of the control response that was lost under treatment. One may read the ED50 as the dose that gives a 50% effect, or the effect in half of the subjects. A low value points to greater potency.

This is an account of results in ChEMBL document CHEMBL1131926, “Synthesis and thromboxane A2 antagonistic activity of indane derivatives” (Bioorg Med Chem Lett, 1999).

Experiment [1] addresses T1, Thromboxane A2 receptor (Rattus norvegicus, UniProt P34978).
T1 sequence (P34978 whole entry): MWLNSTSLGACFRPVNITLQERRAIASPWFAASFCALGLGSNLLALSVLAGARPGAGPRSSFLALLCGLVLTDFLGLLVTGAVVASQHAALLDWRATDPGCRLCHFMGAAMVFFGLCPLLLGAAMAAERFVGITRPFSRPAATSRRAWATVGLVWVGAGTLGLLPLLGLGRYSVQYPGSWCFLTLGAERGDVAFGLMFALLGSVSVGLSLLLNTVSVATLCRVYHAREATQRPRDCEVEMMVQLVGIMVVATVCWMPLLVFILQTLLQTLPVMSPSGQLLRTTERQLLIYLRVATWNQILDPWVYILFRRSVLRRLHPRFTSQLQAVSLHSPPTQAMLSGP
Put plainly: In vitro thromboxane A2 antagonistic activity on U-46619 (0.1 uM) induced contraction of rat aorta. In kind it is functional, tissue-based.

Experiment [2] relates to Cavia porcellus. The experiment can be described thus: Ex vivo inhibitory activity (0.3 mg/kg p.o.) on the aggregation of guinea pig platelets induced by arachidonic acid (100 uM). Format: functional.
Experiment [3] concerns Cavia porcellus. Put plainly: Extra vivo inhibitory activity of compound (0.3 mg/kg p.o.) on the aggregation of guinea pig platelets induced by U-46619 (1 uM). In kind it is functional.
Experiment [4] is filed under the species Homo sapiens. Put plainly: In vitro inhibitory activity for the aggregation of human platelets induced by U-46,619 (1 uM) was determined. In kind it is functional.
The species entered for experiment [5] is Cavia porcellus. Put plainly: In vitro inhibitory activity for the aggregation of guinea pig platelets induced by U-46,619 (4 uM) was determined. In kind it is functional.
The species entered for experiment [6] is Cavia porcellus. The experiment can be described thus: Extra vivo inhibitory activity for the aggregation of guinea pig platelets induced by U-46,619 (4 uM) was determined. Format: functional, organism-based.
The species named for experiment [7] is Cavia porcellus. The experiment can be described thus: Extra vivo inhibitory activity of compound for the aggregation of guinea pig platelets induced by U-46,619 (4 uM) was determined. Format: functional, organism-based.

A value given as a limit tells only on which side of the number the result lay.

Regarding `O=C(O)c1ccc2c(c1)CC(CCNS(=O)(=O)c1ccc(Cl)cc1)C2` (configuration not stated), in experiment [1], the IC50 is 66.1 nM. In other words, the double-digit nanomolar range.
Compound `CCCCCS(=O)(=O)NCC1Cc2ccc(CC(=O)O)cc2C1` (configuration not stated) showed a concentration for half-maximal inhibition (IC50) in experiment [1] of 1400 nM.
Consider `O=C(O)Cc1ccc2c(c1)CC(CNS(=O)(=O)Cc1ccccc1)C2` (configuration not stated), for which it took 5900 nM to reach half-maximal inhibition in experiment [1] (IC50).
`O=C(O)c1ccc2c(c1)CC(CCCCNS(=O)(=O)c1ccc(Cl)cc1)C2` (configuration not stated) came in with an IC50 in experiment [1] of over 479 nM.
Still for that read-out and setting: then `O=C(O)Cc1ccc2c(c1)CC(CNS(=O)(=O)c1cccs1)C2` (configuration not stated), with 85.1 nM; and `O=C(O)Cc1ccc2c(c1)CC(CNS(=O)(=O)c1ccc(Cl)cc1)O2` (configuration not stated), with 141 nM.
As for `O=C([O-])Cc1ccc2c(c1)CC(CCNS(=O)(=O)c1ccc(Cl)cc1)C2.[Na+]` (configuration not stated), it took 31.6 nM to reach half-maximal inhibition in experiment [1] (IC50). Further, the Inhibition in experiment [2] is given as 83%; in experiment [3], 96%.
In experiment [1], `O=C(O)CCCCc1ccc2c(c1)CC(CNS(=O)(=O)c1ccc(Cl)cc1)C2` (configuration not stated) gave an IC50 of 35.5 nM.
On the same count and under the same terms, under `O=C(O)Cc1ccc2c(c1)CC(CCCCNS(=O)(=O)c1ccc(Cl)cc1)C2` (configuration not stated) stands 977 nM.
With `O=C(O)Cc1ccc(CCNS(=O)(=O)c2ccc(Cl)cc2)cc1` [DALTROBAN], the results for the IC50 in experiment [4] and in experiment [5] were 370 nM and 500 nM, respectively. For the same compound, the Inhibition turned out to be 25% in experiment [2] and 55% in experiment [3]. It took a dose of 0.53 mg/kg to reach the 50% effect level in experiment [6] (ED50).
`O=C(O)Cc1ccc2c(c1)CC(NS(=O)(=O)c1ccc(Cl)cc1)C2` (configuration not stated): in experiment [1], the midpoint of inhibition, the IC50, lay at 2.19 nM.
As to `O=C([O-])CCc1ccc2c(c1)CC(CNS(=O)(=O)c1ccc(Cl)cc1)C2.[Na+]` (configuration not stated), in experiment [1], the IC50 is 14.8 nM. Moreover, the Inhibition amounted to 57% in experiment [2] and 98% in experiment [3].
`O=C(O)Cc1ccc2c(c1)CC(CNS(=O)(=O)c1cccnc1)C2` (configuration not stated) registered an IC50 in experiment [1] of 1900 nM.
`O=C(O)Cc1ccc2c(c1)CC(CNS(=O)(=O)c1cccc3ccccc13)C2` (configuration not stated) had an IC50 in experiment [1] of 295 nM.
`O=C([O-])c1ccc2c(c1)CC(CNS(=O)(=O)c1ccc(Cl)cc1)C2.[Na+]` (configuration not stated) yielded an IC50 in experiment [1] of 26.3 nM. Further, the Inhibition amounted to 29% in experiment [2] and 58% in experiment [3].
For the compound `O=C(O)Cc1ccc2c(c1)CC(CNS(=O)(=O)C1CCCCC1)C2` (configuration not stated), the 50% inhibitory concentration (IC50) in experiment [1] came to 1200 nM. This lies in the single-digit micromolar range.
As for `O=C([O-])Cc1ccc2c(c1)CC(CNS(=O)(=O)c1ccc3ccccc3c1)C2.[Na+]` (configuration not stated), the IC50 was 290 nM in experiment [4], 22.4 nM in experiment [1] and 310 nM in experiment [5]. Further, the Inhibition in experiment [2] and in experiment [3] was 100% in each case. Further, the ED50 in experiment [6] stood at 0.13 mg/kg.
On to `O=C(O)Cc1ccc2c(c1)CC(CCCNS(=O)(=O)c1ccc(Cl)cc1)C2` (configuration not stated), for which half-maximal inhibition in experiment [1] (IC50) was put at 513 nM.
Turning to `O=C([O-])CCCc1ccc2c(c1)CC(CNS(=O)(=O)c1ccc(Cl)cc1)C2.[Na+]` (configuration not stated), the IC50 was determined as 2690 nM in experiment [4], 38.9 nM in experiment [1] and 230 nM in experiment [5]. In addition, the Inhibition in experiment [2] and in experiment [3] was 100% throughout. Also, the ED50 in experiment [7] is 0.083 mg/kg.
For the compound `O=C(O)c1ccc2c(c1)CC(CCCNS(=O)(=O)c1ccc(Cl)cc1)C2` (configuration not stated), the IC50 in experiment [1] was found to be 85.1 nM.
As to `O=C(O)Cc1ccc2c(c1)CC(CNS(=O)(=O)c1ccccc1)C2` (configuration not stated), 12.9 nM corresponded to half-maximal inhibition in experiment [1] (IC50).
In the case of `O=C([O-])Cc1ccc2c(c1)CC(CNS(=O)(=O)c1ccc(Cl)cc1)C2.[Na+]` (configuration not stated), the figures for the IC50 in experiment [4], in experiment [1] and in experiment [5] were 280 nM, 3.02 nM and 270 nM, respectively. Further, the Inhibition in experiment [2] and in experiment [3] was 100% throughout. In experiment [7], this compound registered an ED50 of 0.063 mg/kg.
